The target in one data set is T1, Na—H exchange (Rattus norvegicus, UniProt P26431).
T1 construct: The blood was centrifuged at 3000 rpm for 5 seconds to obtain platelet rich plasma (PRP); from tissue; host or cells: platelets in platelet rich plasma from abdominal aortic blood of male Wistar rats
Briefly: Rat platelet swelling in sodium propionate solution (light transmittance of PRP), inhibition of Na—H exchange. To be noted: 1 min, read-out: Inhibition Rate (%) [10^−7 M]. Format: cell-based. On the procedure: Male Wistar rats (350-450 g) were anesthetized with sodium pentobarbital (50 mg/kg, i.p.). Using a disposable syringe pre-filled with 1.5 ml of 3.8% citric acid solution, 8.5 ml of blood was collected from the abdominal aorta. The blood was centrifuged at 3000 rpm for 5 seconds to obtain platelet rich plasma (PRP). The number of platelets in the PRP was counted by an automatic hemocytometer (Sysmex 2500, TOA Medical Electronics). The PRP was diluted with physiological saline to make the concentration of 40×10^4 platelets per 1 μl. A platelet aggregometer (Hematoracer, Niko Bioscience) was used for measurement of the platelet swelling. 200 μl of the PRP was poured into a cuvette and 600 μl of sodium propionate solution (Na propionate 135, glucose 10, Hepes 20, CaCl2 1, MgCl2 1; Units: mM; pH6.7) was added while stirring at 37° C. The change in the light transmittance of PRP which was an indicator of the platelet swelling was recorded on a plotter. The test compound was added 3 minutes before addition of the sodium propionate solution. The test compounds were dissolved in dimethylsulfoxide (DMSO).

Where [1] appears, read: test compound 10^−7 M, rat platelet rich plasma, value 1 minute after sodium propionate solution, 100% = difference between 1% DMSO and HOE-642 (10^−5M).

Counter-ions that a name gives are not always drawn. Like-named read-outs stand apart in the source and are kept apart here.

T1 sequence (P26431 whole entry): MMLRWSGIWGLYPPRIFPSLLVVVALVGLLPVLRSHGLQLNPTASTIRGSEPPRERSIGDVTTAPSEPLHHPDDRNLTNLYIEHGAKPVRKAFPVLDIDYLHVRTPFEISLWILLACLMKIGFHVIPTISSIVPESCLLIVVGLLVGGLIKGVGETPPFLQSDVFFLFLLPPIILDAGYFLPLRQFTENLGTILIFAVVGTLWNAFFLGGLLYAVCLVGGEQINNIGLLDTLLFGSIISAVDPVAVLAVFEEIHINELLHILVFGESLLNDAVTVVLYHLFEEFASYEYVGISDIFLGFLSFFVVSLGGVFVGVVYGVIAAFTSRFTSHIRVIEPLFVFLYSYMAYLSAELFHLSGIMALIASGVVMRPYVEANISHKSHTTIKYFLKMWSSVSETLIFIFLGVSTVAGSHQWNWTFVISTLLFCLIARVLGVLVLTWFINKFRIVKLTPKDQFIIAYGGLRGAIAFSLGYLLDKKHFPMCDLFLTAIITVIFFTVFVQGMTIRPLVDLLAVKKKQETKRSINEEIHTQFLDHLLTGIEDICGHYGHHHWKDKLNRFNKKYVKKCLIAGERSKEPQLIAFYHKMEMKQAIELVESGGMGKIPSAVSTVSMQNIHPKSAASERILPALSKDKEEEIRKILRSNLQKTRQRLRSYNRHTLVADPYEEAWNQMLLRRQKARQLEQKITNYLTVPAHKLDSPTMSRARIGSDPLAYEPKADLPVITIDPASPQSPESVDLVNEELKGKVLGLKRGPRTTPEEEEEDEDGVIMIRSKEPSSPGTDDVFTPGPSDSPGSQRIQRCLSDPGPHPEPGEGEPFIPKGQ

The term melting point denotes the temperature of the solid-liquid transition. For orientation: inhibition means the change of the read-out against control, counted positive when it falls. Consider `CS(=O)(=O)O.Cc1ccnc2c1C(=NNC(=N)N)CC(c1ccccc1Cl)C2` (single isomer, unassigned; (-)) [Compound 64, (−)-7-(2-chlorophenyl)-5-guanidinoimino-4-methyl-5,6,7,8-tetrahydroquinoline methanesulfonate], for which the melting point was 194 to 195 °C. The inhibition at 0.1 µM at Na—H exchange (setting [1]) worked out at 86%.
`Cc1ccnc2c1C(=NNC(=N)N)CC(c1cc(Cl)sc1Cl)C2` (single isomer, unassigned; (-)) [Compound 109, (−)-7-(2,5-dichlorothiophen-3-yl)-5-guanidinoimino-4-methyl-5,6,7,8-tetrahydroquinoline hydrochloride]: on Na—H exchange, the inhibition at 0.1 µM is 91%.
Turning to `Cc1ccnc2c1C(=NNC(=N)N)CC(c1ccccc1O)C2.Cl` (stereo not drawn) [Compound 68, 5-guanidinoimino-7-(2-hydroxyphenyl)-4-methyl-5,6,7,8-tetrahydroquinoline hydrochloride], the melting point is 161 °C (dec.). On Na—H exchange (setting [1]), the inhibition at 0.1 µM was 70%.
The corresponding values for `Cc1ccnc2c1C(=NNC(=N)N)CC(c1cccs1)C2.Cl` (stereo not drawn) [Compound 70, 5-guanidinoimino-4-methyl-7-(2-thienyl)-5,6,7,8-tetrahydroquinoline hydrochloride] are 225 °C (dec.) and 81%.
Regarding `Cc1ccnc2c1C(=NNC(=N)N)CC(c1sccc1Cl)C2.Cl` (stereo not drawn) [Compound 74, 7-(3-chloro-2-thienyl)-5-guanidinoimino-4-methyl-5,6,7,8-tetrahydroquinoline hydrochloride], the melting point was 203 °C (dec.). Besides, the inhibition at 0.1 µM at Na—H exchange (setting [1]) was determined as 98%.
For the compound `CCOc1ccnc2c1C(=NNC(=N)N)CC(c1ccccc1Cl)C2` (stereo not drawn) [Compound 80, 7-(2-chlorophenyl)-4-ethoxy-5-guanidinoimino-5,6,7,8-tetrahydroquinoline hydrochloride], at Na—H exchange (setting [1]), the inhibition at 0.1 µM came out at 75%.
The compound `Cc1nc(C)c2c(n1)CC(c1ccccc1Cl)C/C2=N\NC(=N)N.Cl` (stereo not drawn) had a melting point of 242 to 244 °C.
The same measure, in the same setting: the figure for `Cl.N=C(N)NN=C1CC(c2ccccc2)Cc2c1ccn2Cc1ccccc1` (stereo not drawn) is 142 °C (dec.); for `CS(=O)(=O)O.Cc1ccnc2c1C(=NNC(=N)N)CC(c1cc(Cl)ccc1Cl)C2` (stereo not drawn) it is 248 °C (dec.).
The same measure, in the same setting: the figure for `Cc1ccnc2c1C(=NNC(=N)N)CC(c1sc(Cl)cc1Cl)C2.Cl` (stereo not drawn) is 184 to 187 °C; for `Cc1ccc(C)c(C2CC(=NNC(=N)N)c3c(C)ccnc3C2)c1.Cl` (stereo not drawn) it is 260 to 262 °C; for `Cl.N=C(N)NN=C1CC(c2ccccc2)Cc2c1ccn2C(=O)c1ccccc1` (stereo not drawn) it is 168 °C (dec.).
Same read-out and setting: the figure for `Cc1ccccc1C1=CC(=NNC(=N)N)c2c(C)ccnc21.Cl` is 203 to 204 °C (dec.); for `Cc1ccnc2c1C(=NNC(=N)N)CC(c1ccco1)C2.Cl` (stereo not drawn) it is at least 300 °C.
As for `CCc1cnnc2c1C(=NNC(=N)N)CC(c1cc(Cl)sc1Cl)C2` (stereo not drawn) [Compound 134, 7-(2,5-dichlorothiophen-3-yl)-4-ethyl-5-guanidinoimino-5,6,7,8-tetrahydrocinnoline methanesulfonate], the inhibition at 0.1 µM at Na—H exchange (setting [1]) is 83%.
As to `Cc1ccnc2c1C(=NNC(=N)N)CC(c1ccccc1F)C2` (stereo not drawn) [Compound 59, 7-(2-fluorophenyl)-5-guanidinoimino-4-methyl-5,6,7,8-tetrahydroquinoline hydrochloride], the inhibition at 0.1 µM on Na—H exchange (setting [1]) was 72%.
`Cc1cc(Cl)sc1C1CC(=NNC(=N)N)c2c(C)ccnc2C1.Cl` (stereo not drawn) came in with a melting point of 193 to 196 °C.
The same measure, in the same setting: the figure for `Cc1ccnc2c1C(=NNC(=N)NO)CC(c1ccsc1Br)C2.Cl` (stereo not drawn) is 197 to 198 °C; for `Cc1ccnc2c1C(=NNC(=N)N)CC(c1ccc(F)cc1)C2.Cl` (stereo not drawn) it is 259 °C (dec.).
Consider `Cl.N=C(N)N/N=C1\CC(c2ccc(F)cc2)Cc2occ(C(F)(F)F)c21` (stereo not drawn), for which the melting point was 283 °C (dec.).
As for `Cc1ccc(C2CC(=NNC(=N)NO)c3c(C)ccnc3C2)s1.Cl` (stereo not drawn), the melting point is 210 to 212 °C (dec.).
Still for that read-out and setting: the figure for `COc1ccccc1C1CC(=NNC(=N)N)c2c(C)n[nH]c2C1.Cl` (stereo not drawn) is 202 °C (dec.); for `Cc1coc2c1/C(=N/NC(=N)N)CC(c1cccc(Br)c1)C2.Cl` (stereo not drawn) it is 285 °C (dec.).
Turning to `Cc1cc(C)c2c(n1)CC(c1ccccc1)CC2=NNC(=N)N.Cl` (stereo not drawn), the melting point was 270 °C (dec.).
On to `CCCn1ccc2c1CC(c1ccccc1)CC2=NNC(=N)N.Cl` (stereo not drawn), for which the melting point was 155 °C (dec.).
Same read-out and setting: to `Cc1cnnc2c1C(=NNC(=N)N)CC(c1cc(Cl)ccc1Cl)C2.Cl` (stereo not drawn) belongs 256 to 258 °C; to `Cc1ccc(C2CC(=NNC(=N)N)c3c(C)ccnc3C2)s1.Cl` (stereo not drawn), 271 to 273 °C; to `Cc1cnnc2c1C(=NNC(=N)NO)CC(c1ccccc1Cl)C2.Cl` (stereo not drawn), 210 °C (dec.).
Turning to `CS(=O)(=O)n1ccc2c1CC(c1ccccc1)CC2=NNC(=N)N.Cl` (stereo not drawn), the melting point was 270 °C (dec.).
In turn, `Cc1ccnc2c1C(=NNC(=N)N)CC(c1cc(Cl)sc1Cl)C2` (single isomer, unassigned; (-)) [Compound 112, (−)-7-(2,5-dichlorothiophen-3-yl)-5-guanidinoimino-4-methyl-5,6,7,8-tetrahydroquinoline] yielded a melting point of 129 to 133 °C.
As for `Cc1cn(S(C)(=O)=O)c2c1C(=NNC(=N)N)CC(c1cccs1)C2.Cl` (stereo not drawn), the melting point was 297 °C (dec.).
`Cc1ccnc2c1C(=NNC(=N)NO)CC(c1ccccc1Cl)C2.Cl` (stereo not drawn) returned a melting point of 185 to 187 °C.
For the compound `Cc1ccnc2c1C(=NNC(=N)N)CC(c1ccsc1Cl)C2.Cl` (stereo not drawn), the melting point is 281 to 283 °C (dec.).
Still for that read-out and setting: to `Cc1cc2c([nH]1)CC(c1ccccc1)CC2=NNC(=N)N.Cl` (stereo not drawn) belongs 215 °C (dec.); to `Cc1coc2c1/C(=N/NC(=N)N)CC(c1ccc(F)cc1)C2.Cl` (stereo not drawn), 277 °C (dec.).
As to `CCOC(=O)c1coc2c1/C(=N/NC(=N)N)CC(c1ccccc1Cl)C2.Cl` (stereo not drawn), the melting point was 277 °C (dec.).
`Cc1nn(Cc2ccccc2)c2c1C(=NNC(=N)N)CC(c1ccccc1Cl)C2.Cl` (stereo not drawn) had a melting point of 151 to 153 °C.
As to `Cl.N=C(N)N/N=C1\CC(c2ccco2)Cc2occ(C(F)(F)F)c21` (stereo not drawn), the melting point was 282 °C (dec.).
On to `Cl.N=C(N)NN=C1CC(c2ccccc2Cl)Cc2nncc(-c3ccc(Cl)cc3)c21` (stereo not drawn), for which the melting point is 196 °C (dec.).
Still for that read-out and setting: the figure for `Cc1ccc(C)c(C2C/C(=N\NC(=N)N)c3c(C)coc3C2)c1.Cl` (stereo not drawn) is 235 to 236 °C.
For the compound `COc1ccccc1C1C/C(=N\NC(=N)N)c2c(C)coc2C1.Cl` (stereo not drawn), the melting point was 279 °C (dec.).
Same read-out and setting: to `Cc1coc2c1C(=NNC(=N)N)CC(c1ccc(F)cc1F)C2.Cl` (stereo not drawn) belongs 278 °C (dec.); to `Cc1c[n+]([O-])nc2c1C(=NNC(=N)N)CC(c1ccccc1Cl)C2.Cl` (stereo not drawn), 249 to 250 °C; to `Cc1cc(C)c2c(n1)CC(c1ccccc1Cl)CC2=NNC(=N)N.Cl` (stereo not drawn), 227 °C (dec.).
The same measure, in the same setting: to `CS(=O)(=O)O.Cc1ccnc2c1C(=NNC(=N)N)CC(c1cc(Cl)sc1Cl)C2.O` (stereo not drawn) (hydrate or solvate) belongs 239 to 241 °C.
Consider `Cc1ccnc2c1C(=NNC(=N)N)CC(c1ccc(F)cc1F)C2.Cl` (stereo not drawn), for which the melting point was 286 °C (dec.).
Regarding `COc1ccc(Cl)cc1C1CC(=NNC(=N)N)c2c(C)ccnc2C1.Cl` (stereo not drawn), the melting point lay within 205 to 209 °C.
Take `Cc1ccc(C)c(C2CC(=NNC(=N)NO)c3c(C)ccnc3C2)c1.Cl` (stereo not drawn): the melting point was 190 to 192 °C (dec.).
On to `Cc1ccccc1C1CC(=NNC(=N)N)c2c(C)ccnc2C1.Cl` (stereo not drawn), for which the melting point is 218 °C (dec.).
The same measure, in the same setting: the figure for `Cc1coc2c1C(=NNC(=N)N)CC(c1ccc(Br)cc1)C2.Cl` (stereo not drawn) is 235 °C (dec.).
In the case of `Cc1coc2c1/C(=N/NC(=N)N)CC(c1ccccc1C(F)(F)F)C2.Cl` (stereo not drawn), the melting point was 275 °C (dec.).
On to `Cc1ccnc2c1C(=NNC(=N)N)CC(c1ccccn1)C2.Cl` (stereo not drawn), for which the melting point is 260 °C (dec.).
On the same count and under the same terms, the figure for `Cl.N=C(N)NN=C1CC(c2ccccc2Cl)Cc2[nH]nc(Nc3ccccc3)c21` (stereo not drawn) is 208 to 210 °C.
Same read-out and setting: to `Cl.N=C(N)N/N=C1\CC(c2ccccc2)Cc2occ(C(F)(F)F)c21` (stereo not drawn) belongs 291 °C (dec.).
Turning to `Cc1c2c(nn1CCc1ccccc1)CC(c1ccccc1Cl)CC2=NNC(=N)N.Cl` (stereo not drawn), the melting point was 185 °C (dec.).
Turning to `Cc1n[nH]c2c1C(=NNC(=N)N)CC(c1ccccc1Cl)C2` (stereo not drawn) [Compound 21, 4-guanidinoimino-6-(2-chlorophenyl)-3-methyl-4,5,6,7-tetrahydroindazole hydrochloride], the inhibition at 0.1 µM on Na—H exchange (setting [1]) came out at 72%.
With `Cc1cc(C)c2c(n1)CC(c1ccccn1)CC2=NNC(=N)N.Cl` (stereo not drawn), the melting point is 201 °C (dec.).
In the case of `CS(=O)(=O)O.N=C(N)NN=C1CC(c2ccccc2Cl)Cc2nncc(C(F)(F)F)c21` (stereo not drawn), the melting point was 207 to 208 °C.
Still for that read-out and setting: to `Cc1ccc(Cl)c(C2CC(=NNC(=N)N)c3c(C)cnnc3C2)c1.Cl` (stereo not drawn) belongs 240 to 242 °C.
